The experiment relates to LDLR mRNA expression in HepG2 cells. The experiment can be described thus: LDLR mRNA expression in HepG2 cells, quantitative real-time RT-PCR (Example 7). The experiment is classed as cell-based, human. The note with it: dose less than or equal to 10 μM, 24 hours. As for the experimental part: In yet another experiment, HepG2 cells were treated with various compounds for 24 hours at the indicated doses. Total RNA was isolated and 2 μg was used to generate cDNA in a reaction containing random primers and M-MLV at 37° C. for 1 hour in a volume of 25 μL. Real-time PCR was performed on the cDNA using MCEP REALPLEX 2 SYSTEM (Eppendorf) and Universal MasterMix (Applied Biosystems). Human LDLR and GAPDH Pre-Developed TaqMan Assay Reagents (Applied Biosystems) were used to assess the levels of mRNA expressions in HepG2. The levels of LDLR mRNA were normalized to that of GAPDH. Each RNA samples was assayed in triplicate. The abundance of LDLR mRNA in untreated cells was defined as 1, and the amounts of LDLR mRNA from compound-treated cells were plotted relative to that value in FIG. 2B. The data shown are mean±s.d.
Activities of some compounds of Formulas I, II and EE on LDLR mRNA expression were determined. HepG2 cells were treated with new compounds individually at a dose less than or equal to 10 μM for 24 hours. […] In these experiments, berberine chloride was included for comparison.
For `COc1cc2c(cc1OC)C1Cc3ccc(OC)c(OCc4ccccc4)c3CN1CC2` (stereo not shown) [Compound 64, 2,3,10-trimethoxy-9-(phenylmethoxy)-5,6,7,8,13,13a-hexahydroisoquinolino[3,2-a]isoquinoline], the “Activity on LDLR mRNA expression (Fold of control)” value (shortened to “Activity … (Fold of control)”) is 2.82 ± 0.45 Fold of control. Regarding `COc1ccc2c(c1OCCN1CCOCC1)CN1CCc3cc4c(cc3C1C2)OCO4` (stereo not shown) [Compound 88, 9-O-2-(1′-morpholine-ethyl)-10-methoxy-5,8,13,13a-tetrahydro-6H-[1,3]dioxolo[4,5-g]isoquino[3,2-a]isoquinoline], the “Activity … (Fold of control)” value is listed as 1.93 ± 0.24 Fold of control.

In the case of `COc1ccc2c(c1OC(=O)Nc1ccccc1)CN1CCc3cc4c(cc3C1C2)OCO4` (stereo not shown) [Compound 61, (10-methoxy(5,6,7,8,13,13a-hexahydro-2H-1,3-dioxolano[4,5-g]isoquinolino[3,2-a]isoquinolin-9-yloxy))-N-benzamide], the “Activity … (Fold of control)” value is recorded as 1.33 ± 0.53 Fold of control.

On to `COc1ccc2c(c1OS(=O)(=O)c1ccc(C(F)(F)F)cc1)CN1CCc3cc4c(cc3C1C2)OCO4` (stereo not shown) [Compound 85, 9-(4-trifluoromethyl-benzenesulfonyloxy)-10-methoxy-5,8,13,13a-tetrahydro-6H-[1,3]dioxolo[4,5-g]isoquino[3,2-a]isoquinoline], for which the “Activity … (Fold of control)” value is given as 1.42 ± 0.30 Fold of control.

For the molecule `COc1ccc2c(c1OS(=O)(=O)c1ccc(C)cc1)CN1CCc3cc4c(cc3C1C2)OCO4` (stereo not shown) [Compound 57, 10-methoxy-5,6,7,8,13,13a-hexahydro-2H-1,3-dioxolano[4,5-g]isoquinolino[3,2-a]isoquinolin-9-yl 4-methylbenzenesulfonate], the “Activity … (Fold of control)” value was 2.62 ± 0.17 Fold of control. The figure for `COc1ccc2c(c1OS(=O)(=O)c1sc(NC(C)=O)nc1C)CN1CCc3cc4c(cc3C1C2)OCO4` (stereo not shown) [Compound 93, 10-methoxy-5,6,7,8,13,13a-hexahydro-2H-1,3-dioxolano [4,5-g]isoquinolino[3,2-a]isoquinolin-9-yl 2-(acetylamino)-4-methyl-1,3-thiazole-5-sulfonate] is 1.42 ± 0.16 Fold of control; for `COc1cc2c(cc1OCc1ccccc1)CCN1Cc3c(ccc(OC)c3OS(=O)(=O)c3ccccc3)CC21` (stereo not shown) [Compound 95, 2,10-dimethoxy-3-(phenylmethoxy)-5,6,7,8,13,13a-hexahydroisoquinolino[2,1-b]isoquinolin-9-yl benzenesulfonate] it is 1.43 ± 0.04 Fold of control. In the case of `COc1ccc2c(c1OS(=O)(=O)c1cccc3c(N(C)C)cccc13)CN1CCc3cc4c(cc3C1C2)OCO4` (stereo not shown) [Compound 89, 10-methoxy-5,6,7,8,13,13a-hexahydro-2H-1,3-dioxolano [4,5-g]isoquinolino[3,2-a] isoquinolin-9-yl 5-(dimethylamino)naphthalene-sulfonate], the “Activity … (Fold of control)” value is 1.92 ± 0.40 Fold of control. In the case of `COc1ccc2c(c1OS(=O)(=O)C(F)(F)F)CN1CCc3cc4c(cc3C1C2)OCO4` (stereo not shown) [Compound 90, 10-methoxy-5,6,7,8,13,13a-hexahydro-2H-1,3-dioxolano[4,5-g] isoquinolino[3,2-a] isoquinolin-9-yl (trifluoromethyl)sulfonate] it was 1.21 ± 0.07 Fold of control; in that of `COc1ccc2c(c1OS(=O)(=O)c1ccc(F)c(F)c1)CN1CCc3cc4c(cc3C1C2)OCO4` (stereo not shown) [Compound 53, 10-methoxy-5,6,7,8,13,13a-hexahydro-2H-1,3-dioxolano[4,5-g]isoquinolino[3,2-a]isoquinolin-9-yl 3,4-difluorobenzenesulfonate], 3.96 ± 0.40 Fold of control; in that of `COc1ccc2c(c1OS(=O)(=O)c1ccc(F)cc1F)CN1CCc3cc4c(cc3C1C2)OCO4` (stereo not shown) [Compound 59, 10-methoxy-5,6,7,8,13,13a-hexahydro-2H-1,3-dioxolano[4,5-g]isoquinolino[3,2-a]isoquinolin-9-yl 2,4-difluorobenzenesulfonate], 3.73 ± 0.10 Fold of control. In the case of `COc1ccc2c(c1OS(=O)(=O)c1ccccc1F)CN1CCc3cc4c(cc3C1C2)OCO4` (stereo not shown) [Compound 51, 10-methoxy-5,6,7,8,13,13a-hexahydro-2H-1,3-dioxolano[4,5-g]isoquinolino[3,2-a]isoquinolin-9-yl 2-fluorobenzenesulfonate], the “Activity … (Fold of control)” value was 3.79 ± 0.33 Fold of control. Take `COc1ccc2c(c1Oc1ccc([N+](=O)[O-])cn1)CN1CCc3cc4c(cc3C1C2)OCO4` (stereo not shown) [Compound 96, 10-methoxy-9-(5-nitro(2-pyridyl)oxy)-5,6,7,8,13,13a-hexahydro-2H-1,3-dioxolano [4,5-g]isoquinolino[3,2-a]isoquinoline]: the “Activity … (Fold of control)” value is 1.33 ± 0.05 Fold of control. The figure for `COc1ccc2c(c1OS(=O)(=O)c1ccc([N+](=O)[O-])cc1)CN1CCc3cc4c(cc3C1C2)OCO4` (stereo not shown) [Compound 65, 10-methoxy-5,6,7,8,13,13a-hexahydro-2H-1,3-dioxolano[4,5-g]isoquinolino[3,2-a]isoquinolin-9-yl 4-nitrobenzenesulfonate] is 2.58 ± 0.46 Fold of control. In the case of `COc1ccc2c(c1OS(=O)(=O)c1cccc3cccnc13)CN1CCc3cc4c(cc3C1C2)OCO4` (stereo not shown) [Compound 66, 10-methoxy-5,6,7,8,13,13a-hexahydro-2H-1,3-dioxolano[4,5-g]isoquinolino[3,2-a]isoquinolin-9-yl quinoline-8-sulfonate] it was 2.54 ± 0.06 Fold of control. In the case of `COc1ccc2c(c1OS(=O)(=O)c1cccc(F)c1)CN1CCc3cc4c(cc3C1C2)OCO4` (stereo not shown) [Compound 52, 10-methoxy-5,6,7,8,13,13a-hexahydro-2H-1,3-dioxolano[4,5-g]isoquinolino[3,2-a]isoquinolin-9-yl 3-fluorobenzenesulfonate] it was 3.63 ± 0.17 Fold of control; in that of `COc1ccc2c(c1OS(=O)(=O)c1cccnc1)CN1CCc3cc4c(cc3C1C2)OCO4` (stereo not shown) [Compound 101, 10-methoxy-5,6,7,8,13,13a-hexahydro-2H-1,3-dioxolano [4,5-g]isoquinolino[3,2-a]isoquinolin-9-yl pyridine-3-sulfonate], 1.97 ± 0.00 Fold of control; in that of `COc1ccc(S(=O)(=O)Oc2c(OC)ccc3c2CN2CCc4cc5c(cc4C2C3)OCO5)cc1OC` (stereo not shown) [Compound 86, 9-(3,4-dimethoxy-benzenesulfonyloxy)-10-methoxy-5,8,13,13a-tetrahydro-6H-[1,3]dioxolo[4,5-g]isoquino[3,2-a]isoquinoline], 2.48 ± 0.62 Fold of control. As to `COc1ccc2c(c1OS(=O)(=O)c1cccc([N+](=O)[O-])c1)CN1CCc3cc4c(cc3C1C2)OCO4` (stereo not shown) [Compound 63, 10-methoxy-5,6,7,8,13,13a-hexahydro-2H-1,3-dioxolano[4,5-g]isoquinolino[3,2-a]isoquinolin-9-yl 3-nitrobenzenesulfonate], the “Activity … (Fold of control)” value was 2.94 ± 0.13 Fold of control. Consider `COc1ccc2c(c1OS(=O)(=O)c1ccc(F)cc1)CN1CCc3cc4c(cc3C1C2)OCO4` (stereo not shown) [Compound 58, 10-methoxy-5,6,7,8,13,13a-hexahydro-2H-1,3-dioxolano[4,5-g]isoquinolino[3,2-a]isoquinolin-9-yl 4-fluorobenzenesulfonate], for which the “Activity … (Fold of control)” value is 3.90 ± 0.01 Fold of control. In the case of `COc1ccc2c(c1)CN1CCc3cc4c(cc3C1C2)OCO4` (stereo not shown) [Compound 92, 10-methoxy-5,6,7,8,13,13a-hexahydro-2H-1,3-dioxolano[4,5-g]isoquinolino[3,2-a]isoquinoline], the “Activity … (Fold of control)” value is recorded as 1.52 ± 0.07 Fold of control.

Consider `COc1ccc2c(c1OS(=O)(=O)c1cccc(C)c1)CN1CCc3cc4c(cc3C1C2)OCO4` (stereo not shown) [Compound 60, 10-methoxy-5,6,7,8,13,13a-hexahydro-2H-1,3-dioxolano[4,5-g]isoquinolino[3,2-a]isoquinolin-9-yl 3-methylbenzenesulfonate], for which the “Activity … (Fold of control)” value was 3.46 ± 0.75 Fold of control.

In the case of `COc1ccc2c(c1OS(=O)(=O)c1ccc(-c3ccccc3)cc1)CN1CCc3cc4c(cc3C1C2)OCO4` (stereo not shown) [Compound 37, 10-methoxy-5,6,7,8,13,13a-hexahydro-2H-1,3-dioxolano[4,5-g]isoquinolino[3,2-a]isoquinolin-9-yl 4-phenylbenzenesulfonate], the “Activity … (Fold of control)” value is on record as 2.47 ± 0.07 Fold of control. Consider `COc1ccc2c(c1Oc1ncc(N)cc1C)CN1CCc3cc4c(cc3C1C2)OCO4` (stereo not shown) [Compound 100, 6-(10-methoxy(5,6,7,8,13,13a-hexahydro-2H-1,3-dioxolano[4,5-g]isoquinolino[3,2-a]isoquinolin-9-yloxy))-5-methyl-3-pyridylamine], for which the “Activity … (Fold of control)” value is 1.44 ± 0.59 Fold of control.

On to `COc1ccc2c(c1Oc1ncc([N+](=O)[O-])cc1C)CN1CCc3cc4c(cc3C1C2)OCO4` (stereo not shown) [Compound 94, 10-methoxy-9-(3-methyl-5-nitro(2-pyridyl)oxy)-5,6,7,8,13,13a-hexahydro-2H-1,3-dioxolano[4,5-g]isoquinolino[3,2-a]isoquinoline], for which the “Activity … (Fold of control)” value is recorded as 1.22 ± 0.18 Fold of control.
